Read-outs that look alike come from different tables or passages of the source. Starred links: 1 amine or outer side, 2 acyl side, 3 side chain; linkers in the order of their positions; H or OH if unused. Positions of bridges follow the written chain, without caps; N, C: chain ends. Non-standard residues stand in square brackets, D forms with d. Residues, ends and D or L forms follow the SMILES beside them. X6 = C[C@H](CCC(=O)O)[C@H]1CC[C@H]2[C@@H]3C(=O)C[C@@H]4CC(NCC[C@H](N[*:1])C(=O)[*:2])CC[C@]4(C)[C@H]3CC(=O)[C@]12C; X3 = C[C@H](CCC(=O)O)[C@H]1CC[C@H]2[C@@H]3C(=O)C[C@@H]4CC(NC[C@H](N[*:1])C(=O)[*:2])CC[C@]4(C)[C@H]3CC(=O)[C@]12C; X9 = C[C@H](CCC(=O)O)[C@H]1CC[C@H]2[C@@H]3C(O)C[C@@H]4CC(NCC[C@H](N[*:1])C(=O)[*:2])CC[C@]4(C)[C@H]3CC(=O)[C@]12C; X8 = C[C@H](CCC(=O)O)[C@H]1CC[C@H]2[C@@H]3C(O)C[C@@H]4CC(NC[C@H](N[*:1])C(=O)[*:2])CC[C@]4(C)[C@H]3CC(=O)[C@]12C; X26 = C[C@H](CCC(=O)O)[C@H]1CC[C@H]2[C@@H]3C(=O)C[C@@H]4CC(NCC[C@H](N[*:1])C(=O)[*:2])CC[C@]4(C)[C@H]3CC[C@]12C; X20 = CC(C)CCC[C@@H](C)[C@H]1CC[C@H]2[C@@H]3CC[C@H]4C[C@H](NC[C@H](N[*:1])C(=O)[*:2])CC[C@]4(C)[C@H]3CC[C@]12C; X25 = C[C@H](CCC(=O)O)[C@H]1CC[C@H]2[C@@H]3C(=O)C[C@@H]4CC(NC[C@H](N[*:1])C(=O)[*:2])CC[C@]4(C)[C@H]3CC[C@]12C; X5 = CC(C)CCC[C@@H](C)[C@H]1CC[C@H]2[C@@H]3CC[C@H]4C[C@@H](NC[C@H](N[*:1])C(=O)[*:2])CC[C@]4(C)[C@H]3CC[C@]12C; X17 = C[C@H](CCC(=O)O)[C@H]1CC[C@H]2[C@@H]3CC[C@@H]4CC(NC[C@H](N[*:1])C(=O)[*:2])CC[C@]4(C)[C@H]3CC[C@]12C; Trp(1-CH2COOH) = N[C@@H](Cc1cn(CC(=O)O)c2ccccc12)C(=O)O; X28 = O=C(C[C@@H](Cc1ccc(O)cc1)C(=O)[*:1])C[*:2]; Hyp = O=C(O)[C@@H]1C[C@@H](O)CN1; NMeNle = CCCC[C@H](NC)C(=O)O; NMeA = CN[C@@H](C)C(=O)O; Dab = NCC[C@H](N)C(=O)O

One may read the IC50 as the concentration needed to halve the response being measured.

In the assay the target is T1, PD-1/PD-L1 (Homo sapiens, UniProt Q9NZQ7).
T1 construct: TVMV protease site (C); made in house; host or cells: HEK293T cells
T1 sequence (Q9NZQ7 18-239): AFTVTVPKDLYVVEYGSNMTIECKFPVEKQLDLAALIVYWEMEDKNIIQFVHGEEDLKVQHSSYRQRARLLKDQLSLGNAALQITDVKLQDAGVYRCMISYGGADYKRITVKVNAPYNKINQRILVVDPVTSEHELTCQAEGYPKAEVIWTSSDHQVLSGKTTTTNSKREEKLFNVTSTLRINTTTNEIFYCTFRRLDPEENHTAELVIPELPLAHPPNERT
The experiment in a line: PD-1/PD-L1 Homogenous Time-Resolved Fluorescence (HTRF) binding assay. The note with it: PD-1-Ig 20 nM. The method in brief:
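Inhibitors pre-incubated 15 min with PD-L1-His (10 nM final) in dPBS, 0.1% BSA, 0.05% Tween-20, then 15 min with PD-1-Ig (20 nM final). Eu-cryptate anti-Ig (1 nM) and APC anti-His (20 nM) added, 30 min equilibration; HTRF 665/620 nm ratio. Human ECD proteins from HEK293T.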
(In general: Time-resolved FRET reads energy transfer from a long-lived donor to a nearby acceptor.)

Where [1] appears, read: PD-L1-His 10 nM, read-out: HTRF IC50.

`CCCC[C@H]1C(=O)N(C)[C@@H](CCCC)C(=O)N[C@@H](CC(C)C)C(=O)N[C@H](C(=O)NCC(N)=O)CSCC(=O)N[C@@H](Cc2ccc(O)cc2)C(=O)N(C)[C@@H](C)C(=O)N[C@@H](CC(N)=O)C(=O)N2CCC[C@H]2C(=O)N[C@@H](CNC2CC[C@@]3(C)[C@@H](C2)CC(O)[C@@H]2[C@@H]3CC(=O)[C@]3(C)[C@@H]([C@H](C)CCC(=O)O)CC[C@@H]23)C(=O)N[C@@H](CC(C)C)C(=O)N2C[C@H](O)C[C@H]2C(=O)N[C@@H](Cc2c[nH]c3ccccc23)C(=O)N[C@@H](CCNC2CC[C@@]3(C)[C@@H](C2)CC(O)[C@@H]2[C@@H]3CC(=O)[C@]3(C)[C@@H]([C@H](C)CCC(=O)O)CC[C@@H]23)C(=O)N[C@@H](Cc2cn(CC(=O)O)c3ccccc23)C(=O)N1C` (some centres unmarked) [Example 3001] ({CH2CO}-Y[NMeA]NP[X8]L[Hyp]W[X9][Trp(1-CH2COOH)][NMeNle][NMeNle]LCG-NH2; thioether N-14): the half-inhibitory concentration (IC50) under setting [1] was 20 nM.
Regarding `CCCC[C@H]1C(=O)N(C)[C@@H](CCCC)C(=O)N[C@@H](CC(C)C)C(=O)N[C@H](C(=O)NCC(N)=O)CSCC(=O)N[C@@H](Cc2ccc(O)cc2)C(=O)N(C)[C@@H](C)C(=O)N[C@@H](CC(N)=O)C(=O)N2CCC[C@H]2C(=O)N[C@@H](CNC2CC[C@@]3(C)[C@H](CC(=O)[C@@H]4[C@@H]3CC(=O)[C@]3(C)[C@@H]([C@H](C)CCC(=O)O)CC[C@@H]43)C2)C(=O)N[C@@H](CC(C)C)C(=O)N2C[C@H](O)C[C@H]2C(=O)N[C@@H](Cc2c[nH]c3ccccc23)C(=O)N[C@@H](CCNC2CC[C@@]3(C)[C@H](CC(=O)[C@@H]4[C@@H]3CC(=O)[C@]3(C)[C@@H]([C@H](C)CCC(=O)O)CC[C@@H]43)C2)C(=O)N[C@@H](Cc2cn(CC(=O)O)c3ccccc23)C(=O)N1C` (some centres unmarked) [Example 3003] ({CH2CO}-Y[NMeA]NP[X3]L[Hyp]W[X6][Trp(1-CH2COOH)][NMeNle][NMeNle]LCG-NH2; thioether N-14), the IC50 under setting [1] worked out at 17 nM.
Take `CCCC[C@H]1C(=O)N(C)[C@@H](CCCC)C(=O)N[C@@H](CC(C)C)C(=O)N[C@H](C(=O)NCC(N)=O)CSCC(=O)C[C@@H](Cc2ccc(O)cc2)C(=O)N(C)[C@@H](C)C(=O)N[C@@H](CC(N)=O)C(=O)N2CCC[C@H]2C(=O)N[C@@H](CNC2CC[C@@]3(C)[C@H](CC(=O)[C@@H]4[C@@H]3CC[C@]3(C)[C@@H]([C@H](C)CCC(=O)O)CC[C@@H]43)C2)C(=O)N[C@@H](CC(C)C)C(=O)N2C[C@H](O)C[C@H]2C(=O)N[C@@H](Cc2c[nH]c3ccccc23)C(=O)N[C@@H](CCN)C(=O)N[C@@H](Cc2cn(CC(=O)O)c3ccccc23)C(=O)N1C` (some centres unmarked) [Example 3004] ([NMeA]NP[X25]L[Hyp]W[Dab][Trp(1-CH2COOH)][NMeNle][NMeNle]LCG-NH2; linker N-13 via X28): under setting [1], the IC50 came out at 41 nM.
Still for that read-out and setting: the value for `CCCC[C@H]1C(=O)N(C)[C@@H](CCCC)C(=O)N[C@@H](CC(C)C)C(=O)N[C@H](C(=O)NCC(N)=O)CSCC(=O)N[C@@H](Cc2ccc(O)cc2)C(=O)N(C)[C@@H](C)C(=O)N[C@@H](CC(N)=O)C(=O)N2CCC[C@H]2C(=O)N[C@@H](CNC2CC[C@@]3(C)[C@H](CC(=O)[C@@H]4[C@@H]3CC(=O)[C@]3(C)[C@@H]([C@H](C)CCC(=O)O)CC[C@@H]43)C2)C(=O)N[C@@H](CC(C)C)C(=O)N2C[C@H](O)C[C@H]2C(=O)N[C@@H](Cc2c[nH]c3ccccc23)C(=O)N[C@@H](CCN)C(=O)N[C@@H](Cc2cn(CC(=O)O)c3ccccc23)C(=O)N1C` (some centres unmarked) [Example 3005] ({CH2CO}-Y[NMeA]NP[X3]L[Hyp]W[Dab][Trp(1-CH2COOH)][NMeNle][NMeNle]LCG-NH2; thioether N-14) was 13 nM; that for `CCCC[C@H]1C(=O)N(C)[C@@H](CCCC)C(=O)N[C@@H](CC(C)C)C(=O)N[C@H](C(=O)NCC(N)=O)CSCC(=O)N[C@@H](Cc2ccc(O)cc2)C(=O)N(C)[C@@H](C)C(=O)N[C@@H](CC(N)=O)C(=O)N2CCC[C@H]2C(=O)N[C@@H](CNC2CC[C@@]3(C)[C@H](CC(=O)[C@@H]4[C@@H]3CC[C@]3(C)[C@@H]([C@H](C)CCC(=O)O)CC[C@@H]43)C2)C(=O)N[C@@H](CC(C)C)C(=O)N2C[C@H](O)C[C@H]2C(=O)N[C@@H](Cc2c[nH]c3ccccc23)C(=O)N[C@@H](CCNC2CC[C@@]3(C)[C@H](CC(=O)[C@@H]4[C@@H]3CC[C@]3(C)[C@@H]([C@H](C)CCC(=O)O)CC[C@@H]43)C2)C(=O)N[C@@H](Cc2cn(CC(=O)O)c3ccccc23)C(=O)N1C` (some centres unmarked) [Example 3006] ({CH2CO}-Y[NMeA]NP[X25]L[Hyp]W[X26][Trp(1-CH2COOH)][NMeNle][NMeNle]LCG-NH2; thioether N-14) was 11 nM.
Regarding `CCCC[C@H]1C(=O)N(C)[C@@H](CCCC)C(=O)N[C@@H](CC(C)C)C(=O)N[C@H](C(=O)NCC(N)=O)CSCC(=O)N[C@@H](Cc2ccc(O)cc2)C(=O)N(C)[C@@H](C)C(=O)N[C@@H](CC(N)=O)C(=O)N2CCC[C@H]2C(=O)N[C@@H](CNC2CC[C@@]3(C)[C@H](CC[C@@H]4[C@@H]3CC[C@]3(C)[C@@H]([C@H](C)CCC(=O)O)CC[C@@H]43)C2)C(=O)N[C@@H](CC(C)C)C(=O)N2C[C@H](O)C[C@H]2C(=O)N[C@@H](Cc2c[nH]c3ccccc23)C(=O)N[C@@H](CCN)C(=O)N[C@@H](Cc2cn(CC(=O)O)c3ccccc23)C(=O)N1C` (some centres unmarked) [Example 3007] ({CH2CO}-Y[NMeA]NP[X17]L[Hyp]W[Dab][Trp(1-CH2COOH)][NMeNle][NMeNle]LCG-NH2; thioether N-14), under setting [1], the IC50 came to 12 nM.
As to `CCCC[C@H]1C(=O)N(C)[C@@H](CCCC)C(=O)N[C@@H](CC(C)C)C(=O)N[C@H](C(=O)NCC(N)=O)CSCC(=O)N[C@@H](Cc2ccc(O)cc2)C(=O)N(C)[C@@H](C)C(=O)N[C@@H](CC(N)=O)C(=O)N2CCC[C@H]2C(=O)N[C@@H](CN[C@H]2CC[C@@]3(C)[C@@H](CC[C@@H]4[C@@H]3CC[C@]3(C)[C@@H]([C@H](C)CCCC(C)C)CC[C@@H]43)C2)C(=O)N[C@@H](CC(C)C)C(=O)N2C[C@H](O)C[C@H]2C(=O)N[C@@H](Cc2c[nH]c3ccccc23)C(=O)N[C@@H](CCN)C(=O)N[C@@H](Cc2cn(CC(=O)O)c3ccccc23)C(=O)N1C` [Example 3008] ({CH2CO}-Y[NMeA]NP[X5]L[Hyp]W[Dab][Trp(1-CH2COOH)][NMeNle][NMeNle]LCG-NH2; thioether N-14), the IC50 under setting [1] came out at 91 nM.
As for `CCCC[C@H]1C(=O)N(C)[C@@H](CCCC)C(=O)N[C@@H](CC(C)C)C(=O)N[C@H](C(=O)NCC(N)=O)CSCC(=O)N[C@@H](Cc2ccc(O)cc2)C(=O)N(C)[C@@H](C)C(=O)N[C@@H](CC(N)=O)C(=O)N2CCC[C@H]2C(=O)N[C@@H](CN[C@@H]2CC[C@@]3(C)[C@@H](CC[C@@H]4[C@@H]3CC[C@]3(C)[C@@H]([C@H](C)CCCC(C)C)CC[C@@H]43)C2)C(=O)N[C@@H](CC(C)C)C(=O)N2C[C@H](O)C[C@H]2C(=O)N[C@@H](Cc2c[nH]c3ccccc23)C(=O)N[C@@H](CCN)C(=O)N[C@@H](Cc2cn(CC(=O)O)c3ccccc23)C(=O)N1C` [Example 3009] ({CH2CO}-Y[NMeA]NP[X20]L[Hyp]W[Dab][Trp(1-CH2COOH)][NMeNle][NMeNle]LCG-NH2; thioether N-14), the IC50 (HTRF IC50, PD-L1-His 10 nM) amounted to 130 nM.

(Values after patent US20230183292A1, “IMMUNOMODULATORS” (priority 2020, published 2023).)
